Paper PMC10215302 (Antibiotics, 2023)
≈ marks a conversion by molar mass, not a printed value. Where two headings read alike, the source gives them in different places.

Columns and labels:
Experiment in all cases: microbe, parasite or virus in culture
Conditions in all cases: Staphylococcus aureus
S. aureus SA0077 = tested on: S. aureus SA0077
S. aureus SA0085 = tested on: S. aureus SA0085
S. aureus SA0422 = tested on: S. aureus SA0422
S. aureus SA0736 = tested on: S. aureus SA0736
S. aureus ATCC 29213 = tested on: S. aureus ATCC 29213
[1] = SA0736, read-out: MIC values, Table S1: SA0736 VAN (derivative after 40 passages on vancomycin)
[2] = ATCC29213, read-out: MIC values
[3] = SA0422, read-out: MIC values, Table S1: SA0422 DAP (derivative after 40 passages on daptomycin)
[4] = SA0422, read-out: MIC values, Table S1: SA0422 VAN (derivative after 40 passages on vancomycin)
[5] = ATCC29213, read-out: MIC values, Table S1: ATCC 29213 DAP (derivative after 40 passages on daptomycin)
[6] = ATCC29213, read-out: MIC values, Table S1: ATCC 29213 VAN (derivative after 40 passages on vancomycin)
[7] = SA0077, read-out: MIC values, Table S1: SA0077 Abf (passages on antibiotic-free media)
[8] = SA0077, read-out: MIC values, Table S1: SA0077 VAN (derivative after 40 passages on vancomycin)

`CO[C@H]1/C=C/O[C@@]2(C)Oc3c(C)c(O)c4c(O)c(c(/C=N/N5CCN(C)CC5)c(O)c4c3C2=O)NC(=O)/C(C)=C\C=C\[C@H](C)[C@H](O)[C@@H](C)[C@@H](O)[C@@H](C)[C@H](OC(C)=O)[C@@H]1C` [Rifampicin] showed an MIC (S. aureus SA0077; SA0077, read-out: MIC values) of 0.004 µg/mL (≈ 0.00486 µM), an MIC (S. aureus SA0085; SA0085, read-out: MIC values) of over 4 µg/mL and an MIC (S. aureus SA0422; SA0422, read-out: MIC values) of 0.004 µg/mL (≈ 0.00486 µM). The MIC (S. aureus SA0736; SA0736, read-out: MIC values) was 0.004 µg/mL (≈ 0.00486 µM), the MIC (S. aureus SA0736; [1]) was 0.016 µg/mL (≈ 0.0194 µM) and the MIC (S. aureus ATCC 29213; [2]) was 0.004 µg/mL (≈ 0.00486 µM).
`CC(=O)O[C@H]1C[C@@]2(C)[C@@H](C[C@@H](O)[C@H]3[C@@]4(C)CC[C@@H](O)[C@@H](C)[C@@H]4CC[C@@]32C)/C1=C(\CCC=C(C)C)C(=O)O` [Fusidic acid] gave an MIC (S. aureus SA0077; SA0077, read-out: MIC values) of 0.06 µg/mL (≈ 0.116 µM), an MIC (S. aureus SA0085; SA0085, read-out: MIC values) of 0.125 µg/mL (≈ 0.242 µM) and an MIC (S. aureus SA0422; SA0422, read-out: MIC values) of 0.125 µg/mL (≈ 0.242 µM). The MIC (S. aureus SA0422; [3]) was 0.06 µg/mL (≈ 0.116 µM), the MIC (S. aureus SA0422; [4]) was 0.06 µg/mL (≈ 0.116 µM) and the MIC (S. aureus SA0736; SA0736, read-out: MIC values) was 0.06 µg/mL (≈ 0.116 µM). It also gave an MIC (S. aureus SA0736; [1]) of 0.125 µg/mL (≈ 0.242 µM), an MIC (S. aureus ATCC 29213; [2]) of 0.25 µg/mL (≈ 0.484 µM) and an MIC (S. aureus ATCC 29213; [5]) of 0.125 µg/mL (≈ 0.242 µM).
`CC[C@H]1OC(=O)[C@H](C)[C@@H](O[C@H]2C[C@@](C)(OC)[C@@H](O)[C@H](C)O2)[C@H](C)[C@@H](O[C@@H]2O[C@H](C)C[C@H](N(C)C)[C@H]2O)[C@](C)(O)C[C@@H](C)C(=O)[C@H](C)[C@@H](O)[C@]1(C)O` [Erythromycin] was tested, and the MIC (S. aureus SA0077; SA0077, read-out: MIC values) was over 128 µg/mL, the MIC (S. aureus SA0085; SA0085, read-out: MIC values) was over 128 µg/mL and the MIC (S. aureus SA0422; SA0422, read-out: MIC values) was 0.125 µg/mL (≈ 0.17 µM). It also gave an MIC (S. aureus SA0422; [4]) of 0.5 µg/mL (≈ 0.681 µM), an MIC (S. aureus SA0736; SA0736, read-out: MIC values) of 0.125 µg/mL (≈ 0.17 µM) and an MIC (S. aureus SA0736; [1]) of 0.5 µg/mL (≈ 0.681 µM). The MIC (S. aureus ATCC 29213; [2]) was 0.25 µg/mL (≈ 0.341 µM), the MIC (S. aureus ATCC 29213; [5]) was 0.125 µg/mL (≈ 0.17 µM) and the MIC (S. aureus ATCC 29213; [6]) was 0.5 µg/mL (≈ 0.681 µM).
`C/C(=C\C(=O)OCCCCCCCCC(=O)O)C[C@@H]1OC[C@H](C[C@@H]2O[C@H]2[C@@H](C)[C@H](C)O)[C@@H](O)[C@H]1O` [Mupirocin] showed an MIC (S. aureus SA0077; SA0077, read-out: MIC values) of 0.5 µg/mL (≈ 0.999 µM), an MIC (S. aureus SA0077; [7]) of 1 µg/mL (≈ 2 µM) and an MIC (S. aureus SA0077; [8]) of 1 µg/mL (≈ 2 µM). The MIC (S. aureus SA0085; SA0085, read-out: MIC values) was 1 µg/mL (≈ 2 µM), the MIC (S. aureus SA0422; SA0422, read-out: MIC values) was 1 µg/mL (≈ 2 µM) and the MIC (S. aureus SA0736; SA0736, read-out: MIC values) was 1 µg/mL (≈ 2 µM). It also gave an MIC (S. aureus SA0736; SA0736, read-out: MIC values, Table S1: SA0736 DAP-W (40 passages on daptomycin, white colonies)) of 0.5 µg/mL (≈ 0.999 µM) and an MIC (S. aureus ATCC 29213; [2]) of 1 µg/mL (≈ 2 µM).
Work on `CN(C)c1cc(NC(=O)CNC(C)(C)C)c(O)c2c1C[C@H]1C[C@H]3[C@H](N(C)C)C(O)=C(C(N)=O)C(=O)[C@@]3(O)C(O)=C1C2=O` [Tigecycline] yielded an MIC (S. aureus SA0077; SA0077, read-out: MIC values) of 0.25 µg/mL (≈ 0.427 µM), an MIC (S. aureus SA0077; [7]) of 0.06 µg/mL (≈ 0.102 µM) and an MIC (S. aureus SA0077; SA0077, read-out: MIC values, Table S1: SA0077 DAP (derivative after 40 passages on daptomycin)) of 0.06 µg/mL (≈ 0.102 µM). For the same compound, the MIC (S. aureus SA0077; [8]) was 0.06 µg/mL (≈ 0.102 µM), the MIC (S. aureus SA0085; SA0085, read-out: MIC values) was 0.125 µg/mL (≈ 0.213 µM) and the MIC (S. aureus SA0422; SA0422, read-out: MIC values) was 0.125 µg/mL (≈ 0.213 µM). The MIC (S. aureus SA0422; [3]) was 0.06 µg/mL (≈ 0.102 µM), the MIC (S. aureus SA0736; SA0736, read-out: MIC values) was 0.06 µg/mL (≈ 0.102 µM) and the MIC (S. aureus SA0736; [1]) was 0.125 µg/mL (≈ 0.213 µM). It also gave an MIC (S. aureus ATCC 29213; [2]) of 0.03 µg/mL (≈ 0.0512 µM), an MIC (S. aureus ATCC 29213; [5]) of 0.016 µg/mL (≈ 0.0273 µM) and an MIC (S. aureus ATCC 29213; [6]) of 0.06 µg/mL (≈ 0.102 µM).
For `CC(=O)NC[C@H]1CN(c2ccc(N3CCOCC3)c(F)c2)C(=O)O1` [Linezolid], the MIC (S. aureus SA0077; SA0077, read-out: MIC values) was 1 µg/mL (≈ 2.96 µM), the MIC (S. aureus SA0085; SA0085, read-out: MIC values) was 4 µg/mL (≈ 11.9 µM) and the MIC (S. aureus SA0085; SA0085, read-out: MIC values, Table S1: SA0085 VAN (derivative after 40 passages on vancomycin)) was 1 µg/mL (≈ 2.96 µM). It also gave an MIC (S. aureus SA0422; SA0422, read-out: MIC values) of 2 µg/mL (≈ 5.93 µM), an MIC (S. aureus SA0422; [3]) of 1 µg/mL (≈ 2.96 µM) and an MIC (S. aureus SA0736; SA0736, read-out: MIC values) of 1 µg/mL (≈ 2.96 µM). The MIC (S. aureus SA0736; [1]) was 2 µg/mL (≈ 5.93 µM), the MIC (S. aureus ATCC 29213; [2]) was 2 µg/mL (≈ 5.93 µM) and the MIC (S. aureus ATCC 29213; [5]) was 1 µg/mL (≈ 2.96 µM).
In the case of `CNC(C)C1CCC(N)C(OC2C(N)CC(N)C(OC3OCC(C)(O)C(NC)C3O)C2O)O1` (centres unmarked) [Gentamicin], the MIC (S. aureus SA0077; SA0077, read-out: MIC values) was over 128 µg/mL, the MIC (S. aureus SA0085; SA0085, read-out: MIC values) was over 128 µg/mL and the MIC (S. aureus SA0422; SA0422, read-out: MIC values) was over 128 µg/mL. It also gave an MIC (S. aureus SA0736; SA0736, read-out: MIC values) of over 128 µg/mL, an MIC (S. aureus ATCC 29213; [2]) of 1 µg/mL (≈ 2.09 µM) and an MIC (S. aureus ATCC 29213; [5]) of 0.25 µg/mL (≈ 0.523 µM).
